This is an account of results in patent US9227962B2, “Heterocyclic substituted-3-heteroarylidenyl-2-indolinone derivative” (Dainippon Sumitomo Pharma Co., Ltd., priority 2013, dated 2016).

Converted amounts (≈) assume the structure as drawn. Like-named read-outs stand apart in the source and are kept apart here. A value given as a limit tells only on which side of the number the result lay.

A short description of data set [1]: solubility in buffer solution, HPLC. It counts as physicochemical. To be noted: kinetic from dmso stock. The procedure: A solution of compounds (10 mM in dimethylsulfoxide, 2 μL) was diluted with 50% acetonitrile (198 μL), and this solution was used as a standard solution.
On the other hand, a solution of compounds (10 mM in dimethylsulfoxide, 15 μL) was transferred to a 96 well plate, then solvent was removed in vacuo. Dimethyl sulfoxide (3 μL) was added to dissolve a residual solid, and then buffer solution (pH7.4 or 1.2, 300 μL) was added. The mixture was vigorously stirred for 90 min, then leave it for 16-20 h. An insoluble material was removed, then the solution was analyzed by HPLC. The concentration of compound, which was corresponding to a solubility of the compound, was determined by the comparison with area value between sample and the standard solution.

A further data set relates to FaDu. The data set is described as follows: colony formation assay (cell viability determination). To be noted: Homo sapiens; FaDu cells, colonies counted after 7-10 days; read-out: colonyformation IC50. It counts as cell-based. The procedure:
Cell Culture: FaDu (ATCC, Manassas, Va.) was maintained in Dulbecco's Modified Eagle Medium (DMEM) (Invitrogen, Carlsbad, Calif.) supplemented with 10% fetal bovine serum (FBS) (Gemini Bio-Products, West Sacramento, Calif.) and 5% penicillin/streptomycin/amphotercin B (Invitrogen).
Cell Viability Determination: For colony formation assay, cells were plated in 6 well plates at 2000 cells per well. Twenty-four hours after plating, cells were treated with compound. Colonies were allowed to develop for 7-10 days, at which they were stained with modified Giemsa stain (Sigma). Stained colonies were then counted to determine IC50.

Data set [2] deals with CD44high FaDu cancer stem cells. Put plainly: sphere assay (sphere formation of CSC). Format: cell-based. The note with it: Homo sapiens, spheres scored after 10-14 days. The source says: CSC isolation with surface markers: Sorting tumor cells based primarily upon the differential expression of the surface marker(s), such as CD44 or CD133, have accounted for the majority of the highly tumorigenic CSCs described to date. CD44^high cells were isolated by FACS according to the methods described in Ponti et al, with slight modification [Ponti, D., et al, Isolation and in vitro propagation of tumorigenic breast cancer cells with stem/progenitor cell properties. Cancer Res, 2005. 65(13); p. 5506-11.], Briefly, after trypsinization and recovery of cells for 30 minutes at 37° C. in growth media, cells were pelleted at 400×g and were resuspended in PBS with 2% FBS and ImM EDTA at 1×10^6 cells/mL. Cells were then incubated on ice with a 1:100 dilution of CD44-FITC (BD Biosicences, San Diego, Calif.) for 15 minutes. Alternatively, CD24-PE (BD Bioscences, San Diego, Calif.) (1:100) was utilized for negative selection. After washing three times, cells were resuspended at […] and passed through a […] before sorting.
Sphere assay: A reliable method of measuring the self-renewal capacity of cell population if the ability to be cultured as spheres in the absence of serum or attachment. CD44^high FaDu cancer stem cells were cultured in ultra low attachment plates in cancer stem cell media (DMEM/F12, B27 Neurobasal supplement, 20 ng/ml EGF, 10 ng/rnl FGF, 4 µg/ml insulin, and 0.4% BSA) to allow spheres formation. Typically, sphere formation was evaluated by microscopy after 10-14 days in culture and spheres with >50 cells were scored.

Where [3] appears, read: aqueous buffer, buffer solution pH 7.4, read-out: solubility pH 7.4.
Setting [4] is: simulated gastric fluid, buffer solution pH 1.2, read-out: solubility pH 1.2.

Take `CCN(CC)CCNC(=O)c1c(C)[nH]c(/C=C2\C(=O)Nc3ccc(-n4cc(-c5ccccc5)nn4)cc32)c1C` [Example 49]: the solubility is 13 µg/mL (≈ 24.8 µM) in data set [1] (setting [3]) and 109 µg/mL (≈ 208 µM) in data set [1] (setting [4]). On the same counts, the results for `CCN(CC)CCNC(=O)c1c(C)[nH]c(/C=C2\C(=O)Nc3ccc(-c4nc(-c5ccccc5)cs4)cc32)c1C` [Example 51, (Z)—N-(2-(diethylamino)ethyl)-2,4-dimethyl-5-((2-oxo-5-(4-phenylthiazol-2-yl)indolin-3-ylidene)methyl)-1H-pyrrole-3-carboxamide] are less than 0.5 µg/mL and greater than 200 µg/mL. On the same counts, the results for `CCN(CC)CCNC(=O)c1c(C)[nH]c(/C=C2\C(=O)Nc3ccc(-c4nc(-c5ccccc5)n[nH]4)cc32)c1C` [Example 50] are 7 µg/mL (≈ 13.4 µM) and 154 µg/mL (≈ 294 µM). `Cc1[nH]c(/C=C2\C(=O)Nc3ccc(-c4cnn(-c5ccccn5)c4)cc32)c(C)c1C(=O)N1CCOCC1` [Example 30]: the IC50 in the data set on FaDu is greater than 100 µM. Take `CCN(CC)CCNC(=O)c1c(C)[nH]c(/C=C2\C(=O)Nc3ccc(-c4nnc(-c5ccccc5)o4)cc32)c1C` [Example 53]: the results for the solubility in data set [1] (setting [3]) and in data set [1] (setting [4]) were 61 µg/mL (≈ 116 µM) and greater than 200 µg/mL, respectively. The like results for `CCN(CC)CCNC(=O)c1c(C)[nH]c(/C=C2\C(=O)Nc3ccc(-c4cnc(-c5ccccc5)[nH]4)cc32)c1C` [Example 41] were, in that order, 0.3 µg/mL (≈ 0.574 µM) and 186 µg/mL (≈ 356 µM). `CCN(CC)CCNC(=O)c1c(C)[nH]c(/C=C2\C(=O)Nc3ccc(C4CCN(C5CCN(C(C)=O)CC5)CC4)cc32)c1C` [Example 45] returned an IC50 in data set [2] greater than 50000 nM. As to `CCN(CC)CCNC(=O)c1c(C)[nH]c(/C=C2\C(=O)Nc3ccc(-c4nnc(-c5ccccc5)s4)cc32)c1C` [Example 52], the solubility in data set [1] (setting [3]) was 4 µg/mL (≈ 7.4 µM); in data set [1] (setting [4]), 163 µg/mL (≈ 301 µM). The like results for `CCN(CC)CCNC(=O)c1c(C)[nH]c(/C=C2\C(=O)Nc3ccc(C4CCN(c5ccccc5)CC4)cc32)c1C` [Example 42] were, in that order, 11 µg/mL (≈ 20.4 µM) and greater than 200 µg/mL. On the same counts, the results for `CCN(CC)CCNC(=O)c1c(C)[nH]c(/C=C2\C(=O)Nc3ccc(-c4cc(-c5ccccc5)nn4C)cc32)c1C` [Example 55] are 0.5 µg/mL (≈ 0.932 µM) and 43 µg/mL (≈ 80.1 µM). With `CCN(CC)CCNC(=O)c1c(C)[nH]c(/C=C2\C(=O)Nc3ccc(C4CCN(c5ncccn5)CC4)cc32)c1C` [Example 43], the solubility in data set [1] (setting [3]) is 0.4 µg/mL (≈ 0.738 µM); in data set [1] (setting [4]), 163 µg/mL (≈ 301 µM). The IC50 in data set [2] was 1900 nM. Take `CCN(CC)CCNC(=O)c1c(C)[nH]c(/C=C2\C(=O)Nc3ccc(-c4ccc(-c5cccnc5)s4)cc32)c1C` [Example 26]: the solubility is less than 0.5 µg/mL in data set [1] (setting [3]) and greater than 200 µg/mL in data set [1] (setting [4]). `Cc1[nH]c(/C=C2\C(=O)Nc3ccc(-c4cnn(-c5ccccn5)c4)cc32)c(C)c1C(=O)N1CCN(C)CC1` [Example 31] came in with an IC50 in data set [2] of 200 nM. On to `CCN(CC)CCNC(=O)c1c(C)[nH]c(/C=C2\C(=O)Nc3ccc(C4CCN(C5CCOCC5)CC4)cc32)c1C` [Example 12], for which the solubility in data set [1] (setting [3]) and in data set [1] (setting [4]) was greater than 200 µg/mL throughout. The IC50 in data set [2] is greater than 50000 nM. As for `Cc1nc(-c2ccccc2)oc1-c1ccc2c(c1)NC(=O)/C2=C\c1[nH]c(C)c(C(=O)N2CCN(C)CC2)c1C` [Example 38], the values for the IC50 (in data set [2]; in the data set on FaDu) were 2000 nM and 6.2 µM, respectively. Take `CCN(CC)CCNC(=O)c1c(C)[nH]c(/C=C2\C(=O)Nc3ccc(-c4cn(-c5ccccc5)nn4)cc32)c1C` [Example 48]: the values for the solubility in data set [1] (setting [3]) and in data set [1] (setting [4]) were less than 0.3 µg/mL and 147 µg/mL (≈ 281 µM), respectively.
